# Patent US20140249135A1, “PIM KINASE INHIBITORS AND METHODS OF THEIR USE” (NOVARTIS AG, priority 2007, published 2014)
# Where two headings read alike, the source gives them in different places.
# How the values were obtained:
# Type in all cases: biochemical
# [1] = molecular target: T1, human full length PKCE enzyme (Homo sapiens, UniProt Q02156); assay: In vitro PKCE assay; conditions: 10 nM enzyme, 40 uM peptide substrate, 20 uM ATP, KinaseGlo Plus readout; read-out: PKCε IC50
# T1 construct: human full length PKCE enzyme purchased from InVitrogen; purchased InVitrogen
# T1 sequence (Q02156 1-737): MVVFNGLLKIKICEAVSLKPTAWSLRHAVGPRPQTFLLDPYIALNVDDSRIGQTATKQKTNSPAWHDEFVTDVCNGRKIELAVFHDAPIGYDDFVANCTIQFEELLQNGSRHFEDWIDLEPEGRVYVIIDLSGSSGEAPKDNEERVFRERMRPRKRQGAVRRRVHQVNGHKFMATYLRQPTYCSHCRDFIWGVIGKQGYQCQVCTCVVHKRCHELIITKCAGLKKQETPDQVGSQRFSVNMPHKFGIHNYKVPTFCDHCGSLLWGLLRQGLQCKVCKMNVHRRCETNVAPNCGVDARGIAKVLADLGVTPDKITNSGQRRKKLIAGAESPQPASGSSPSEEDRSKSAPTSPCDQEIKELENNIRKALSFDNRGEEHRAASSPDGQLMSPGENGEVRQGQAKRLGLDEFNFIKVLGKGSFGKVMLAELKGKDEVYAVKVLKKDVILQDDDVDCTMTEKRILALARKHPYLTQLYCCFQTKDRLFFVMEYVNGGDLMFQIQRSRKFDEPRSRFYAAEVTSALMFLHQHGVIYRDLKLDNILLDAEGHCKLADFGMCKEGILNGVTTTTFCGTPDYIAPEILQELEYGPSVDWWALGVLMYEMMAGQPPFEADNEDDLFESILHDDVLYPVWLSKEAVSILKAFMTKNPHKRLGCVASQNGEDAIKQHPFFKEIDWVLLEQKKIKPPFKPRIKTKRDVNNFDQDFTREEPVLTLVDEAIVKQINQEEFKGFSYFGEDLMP
# Pim3 kinase = Pim3 kinase (Homo sapiens, UniProt Q86V86); assay: Pim3 ATP depletion assay
# Pim2 kinase = Pim2 kinase (Homo sapiens, UniProt Q9P1W9); assay: Pim2 ATP depletion assay;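 note: Luciferase-based luminescent readout of ATP remaining after PIM2 phosphorylates a BAD peptide, final 5 nM enzyme, 4 µM ATP, 10 µM peptide, 2.5% DMSO, run to roughly half ATP consumption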
# Sequence of Pim2 kinase (Q9P1W9 whole entry): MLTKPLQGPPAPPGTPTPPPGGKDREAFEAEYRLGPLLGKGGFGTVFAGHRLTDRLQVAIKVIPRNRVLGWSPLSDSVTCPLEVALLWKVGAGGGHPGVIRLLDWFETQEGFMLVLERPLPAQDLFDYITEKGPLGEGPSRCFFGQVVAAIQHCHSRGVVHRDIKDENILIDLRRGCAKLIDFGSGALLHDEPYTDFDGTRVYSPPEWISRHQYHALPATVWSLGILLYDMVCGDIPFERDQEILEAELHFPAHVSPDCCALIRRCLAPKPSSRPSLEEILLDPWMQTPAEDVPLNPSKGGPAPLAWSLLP
# Pim1 kinase = Pim1 kinase (Homo sapiens, UniProt P11309); assay: Pim1 ATP depletion assay;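 note: Luciferase-luciferin luminescence readout of residual ATP after PIM1 transfers phosphate to a peptide substrate, 40 µM ATP added, reaction run to roughly half ATP consumption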
# Sequence of Pim1 kinase (P11309 whole entry): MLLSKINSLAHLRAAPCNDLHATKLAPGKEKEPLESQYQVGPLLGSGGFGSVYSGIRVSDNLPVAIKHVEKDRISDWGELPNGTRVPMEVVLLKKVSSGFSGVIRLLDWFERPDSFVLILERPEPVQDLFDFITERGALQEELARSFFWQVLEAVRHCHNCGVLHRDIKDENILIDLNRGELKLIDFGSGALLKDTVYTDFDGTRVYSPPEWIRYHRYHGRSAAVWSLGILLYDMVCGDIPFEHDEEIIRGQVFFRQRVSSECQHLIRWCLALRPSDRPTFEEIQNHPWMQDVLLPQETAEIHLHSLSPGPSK
# [2] = Pim1 ATP depletion assay, read-out: IC50 (μM) PIM1
# [3] = Pim1 ATP depletion assay, read-out: PIM1 IC50
SMILES,IC50 [1] [nM],IC50 (Pim3 kinase; read-out: IC50 (μM) PIM3) [µM],IC50 (Pim2 kinase; read-out: IC50 (μM) PIM2) [µM],IC50 (Pim1 kinase; [2]) [µM],IC50 (Pim1 kinase) [µM],IC50 (Pim3 kinase; read-out: PIM3 IC50) [µM],IC50 (Pim2 kinase; read-out: PIM2 IC50) [µM],IC50 (Pim1 kinase; [3]) [µM]
"Nc1nccnc1C(=O)Nc1[nH]c(=O)ncc1N1CCC(F)(F)CC1 [Example 156, 3-amino-N-[5-(4,4-difluoro-piperidin-1-yl)-2-oxo-2,3-dihydropyrimidin-4-yl]pyrazine-2-carboxamide]",1000 to 10000,< 1,< 1,< 1,–,–,–,–
"N#Cc1ccc(N2CCCCC2)c(NC(=O)c2nccnc2N)c1 [Example 171, 3-amino-N-(5-cyano-2-(piperidin-1-yl)phenyl)pyrazine-2-carboxamide]",10000 to 25000,< 1,1 to 10,< 1,–,–,–,–
"NCCC(=O)N1CCN(c2ccncc2NC(=O)c2nc(Br)cnc2N)CC1 [Example 178, 3-amino-N-{4-[4-(3-amino-propanoyl)piperazin-1-yl]-pyridin-3-yl}-6-bromopyrazine-2-carboxamide]",< 1000,< 1,< 1,< 1,–,–,–,–
"NCC(=O)N1CCN(c2ccncc2NC(=O)c2nccnc2N)CC1 [Example 189, 3-amino-N-{4-[4-(amino-acetyl)piperazin-1-yl]pyridin-3-yl}pyrazine-2-carboxamide]",< 1000,< 1,1 to 10,–,< 1,–,–,–
"Nc1nccnc1C(=O)Nc1cnccc1N1CCNCC1 [Example 191, 3-amino-N-(4-piperazin-1-yl-pyridin-3-yl)pyrazine-2-carboxamide]",< 1000,1 to 10,> 25,–,< 1,–,–,–
"NC[C@H]1CCCN1c1ccncc1NC(=O)c1nccnc1N [Example 192, 3-amino-N-{4-[(2R)-2-(amino-methyl)pyrrolidin-1-yl]pyridin-3-yl}pyrazine-2-carboxamide]",> 25000,> 25,> 25,> 25,–,–,–,–
"NCCOc1ccncc1NC(=O)c1nccnc1N [Example 194, 3-amino-N-[4-(2-amino-ethoxy)pyridin-3-yl]pyrazine-2-carboxamide]",> 25000,> 25,> 25,> 25,–,–,–,–
"NCC1CCCN(c2cnc(=O)[nH]c2NC(=O)c2nc(Br)cnc2N)C1 (centres unmarked) [Example 240, 3-amino-N-{5-[3-(aminomethyl)-piperidin-1-yl]-2-oxo-2,3-dihydropyrimidin-4-yl}-6-bromopyrazine-2-carboxamide]",< 1000,< 1,< 1,< 1,–,–,–,–
"NCCC(=O)N1CCN(c2cnc(=O)[nH]c2NC(=O)c2nc(Br)cnc2N)CC1 [Example 241, 3-amino-N-{5-[4-(3-amino-propanoyl)piperazin-1-yl]-2-oxo-2,3-dihydropyrimidin-4-yl}-6-bromopyrazine-2-carboxamide]",1000 to 10000,< 1,< 1,< 1,–,–,–,–
"Nc1cccnc1C(=O)Nc1[nH]c(=O)ncc1N1CCCC(N)C1 (centres unmarked) [Example 242, 3-amino-N-[5-(3-aminopiperidin-1-yl)-2-oxo-2,3-dihydro-pyrimidin-4-yl]pyridine-2-carboxamide]",> 25000,< 1,< 1,< 1,–,–,–,–
"Nc1cnc(C(=O)Nc2cnccc2N2CCCCC2)c(N)n1 [Example 312, 3,5-diamino-N-(4-(piperidin-1-yl)pyridin-3-yl)pyrazine-2-carboxamide]",10000 to 25000,< 1,1 to 10,< 1,–,–,–,–
"Nc1ncc(-c2ccccc2C(F)(F)F)nc1C(=O)Nc1[nH]c(=O)ncc1N1CCCCC1 [Example 593, 3-amino-6-(2-trifluoromethyl-phenyl)-pyrazine-2-carboxylic acid (2-oxo-5-piperidin-1-yl-2,3-dihydro-pyrimidin-4-yl)-amide]",> 25000,–,–,–,–,< 1,< 1,< 1
"Nc1ncc(-c2ccccc2OC(F)(F)F)nc1C(=O)Nc1[nH]c(=O)ncc1N1CCCCC1 [Example 596, 3-amino-6-(2-trifluoromethoxy-phenyl)-pyrazine-2-carboxylic acid (2-oxo-5-piperidin-1-yl-2,3-dihydro-pyrimidin-4-yl)-amide]",> 25000,–,–,–,–,< 1,< 1,< 1

# Second part, the compound after the results:
IC50 [1] [nM],IC50 (Pim3 kinase; read-out: IC50 (μM) PIM3) [µM],IC50 (Pim2 kinase; read-out: IC50 (μM) PIM2) [µM],IC50 (Pim1 kinase; [2]) [µM],IC50 (Pim1 kinase) [µM],IC50 (Pim3 kinase; read-out: PIM3 IC50) [µM],IC50 (Pim2 kinase; read-out: PIM2 IC50) [µM],IC50 (Pim1 kinase; [3]) [µM],SMILES
< 1000,< 1,< 1,< 1,–,–,–,–,"Cc1ccccc1-c1cnc(N)c(C(=O)Nc2cnccc2N2CCCC(N)C2)n1 (centres unmarked) [Example 351, 3-amino-6-o-tolyl-pyrazine-2-carboxylic acid (3-amino-3,4,5,6-tetrahydro-2H-[1,4′]bi-pyridinyl-3′-yl)-amide]"
1000 to 10000,< 1,< 1,< 1,–,–,–,–,"Cc1cnc(N)c(C(=O)Nc2cnccc2N2CCCC(N)C2)n1 (centres unmarked) [Example 371, 3-amino-6-methyl-pyrazine-2-carboxylic acid (3-amino-3,4,5,6-tetrahydro-2H-[1,4′]bi-pyridinyl-3′-yl)-amide]"
< 1000,< 1,< 1,< 1,–,–,–,–,"N#Cc1ccccc1-c1cnc(N)c(C(=O)Nc2[nH]c(=O)ncc2N2CCCC(N)C2)n1 (centres unmarked) [Example 403, 3-amino-6-(2-cyano-phenyl)-pyrazine-2-carboxylic acid [5-(3-amino-piperidin-1-yl)-2-oxo-2,3-dihydro-pyrimidin-4-yl]-amide]"
1000 to 10000,< 1,< 1,< 1,–,–,–,–,"Nc1ncc(-c2ccccc2C(F)(F)F)nc1C(=O)Nc1[nH]c(=O)ncc1N1CCCC(N)C1 (centres unmarked) [Example 404, 3-amino-6-(2-trifluoromethyl-phenyl)-pyrazine-2-carboxylic acid [5-(3-amino-piperidin-1-yl)-2-oxo-2,3-dihydro-pyrimidin-4-yl]-amide]"
10000 to 25000,< 1,< 1,< 1,–,–,–,–,"Nc1ncc(-c2ccccc2OC(F)(F)F)nc1C(=O)Nc1[nH]c(=O)ncc1N1CCCC(N)C1 (centres unmarked) [Example 405, 3-amino-6-(2-trifluoro-methoxy-phenyl)-pyrazine-2-carboxylic acid [5-(3-amino-piperidin-1-yl)-2-oxo-2,3-dihydro-pyrimidin-4-yl]-amide]"
> 25000,–,–,–,–,< 1,< 1,< 1,"COc1ccccc1-c1cnc(N)c(C(=O)Nc2[nH]c(=O)ncc2N2CCCCC2)n1 [Example 594, 3-amino-6-(2-methoxy-phenyl)-pyrazine-2-carboxylic acid (2-oxo-5-piperidin-1-yl-2,3-dihydro-pyrimidin-4-yl)-amide]"
> 25000,–,–,–,–,< 1,< 1,< 1,"Nc1ncc(-c2ccccc2Cl)nc1C(=O)Nc1[nH]c(=O)ncc1N1CCCCC1 [Example 595, 3-amino-6-(2-chloro-phenyl)-pyrazine-2-carboxylic acid (2-oxo-5-piperidin-1-yl-2,3-dihydro-pyrimidin-4-yl)-amide]"
